According to the NIST ThermoML archive (doi:10.1016/j.jct.2012.01.022):

Assay: xn = mol fraction of the nth substance listed
Settings: 101 kPa, Liquid; for speed of sound: Sing-around technique in a fixed-path interferometer; for viscosity: Capillary tube (Ostwald / Ubbelohde) method; for mass density: Vibrating tube method

NCCN [ethane-1,2-diamine] + CCCCCCCCO
Settings	mass density, 308.15 K [kg/m3]	mass density, 313.15 K [kg/m3]	speed of sound, 303.15 K [m/s]	speed of sound, 308.15 K [m/s]	speed of sound, 313.15 K [m/s]	viscosity, 308.15 K [mPa·s]
x1 = 0.0595	817.544	813.972	1338.9	1322.8	1306.6	–
x1 = 0.0596	–	–	–	–	–	4.848
x1 = 0.1021	819.514	815.903	1345.7	1329	1313.3	4.757
x1 = 0.143	821.37	817.713	1352.5	1335.8	1319.7	4.662
x1 = 0.2012	823.957	820.239	1362.3	1345.5	1329	4.461
x1 = 0.2633	826.723	822.931	1372.1	1355.7	1339.1	4.211
x1 = 0.3122	827.934	824.111	1379.9	1360.7	1343.9	3.975
x1 = 0.4113	832.902	828.963	1398.3	1380.8	1363.5	3.497
x1 = 0.4919	836.434	832.42	1414	1396.4	1378.9	3.054
x1 = 0.5973	841.825	837.701	1438.7	1420.5	1402.6	2.515
x1 = 0.7019	848.372	844.123	1469.9	1451.2	1432.8	2.031
x1 = 0.7938	855.829	851.455	1506.3	1487.3	1468.2	1.669
x1 = 0.8436	860.863	856.411	1530.5	1512.4	1492.4	1.5
x1 = 0.8941	867.723	863.18	1559.9	1546.7	1526.1	1.342
x1 = 0.9546	875.69	871.049	1604.9	1586.8	1565.6	1.2
